We go through eight molecules from ChEMBL document CHEMBL6121009, “Identification of a selective pyruvate dehydrogenase kinase 1 (PDHK1) chemical probe by virtual screening” (Eur J Med Chem, 2025).

For assay [1], the target named is [Pyruvate dehydrogenase (acetyl-transferring)] kinase isozyme 4, mitochondrial (Homo sapiens, UniProt Q16654).
Description: Inhibition of human PDHK4 using myelin basic protein as substrate pre-incubated for 20 min followed by addition of [gamma-33P]-ATP measured after 2 hrs by Radiometric Hotspot kinase assay
The target of assay [2] is [Pyruvate dehydrogenase (acetyl-transferring)] kinase isozyme 2, mitochondrial (Homo sapiens, UniProt Q15119).
Description: Inhibition of human PDHK2 using PDHKtide and Mn2+ as substrates pre-incubated for 20 min followed by addition of [gamma-33P]-ATP measured after 2 hrs by Radiometric Hotspot kinase assay
Assay [3] addresses [Pyruvate dehydrogenase (acetyl-transferring)] kinase isozyme 3, mitochondrial (Homo sapiens, UniProt Q15120).
Description: Inhibition of human PDHK3 using myelin basic protein as substrate pre-incubated for 20 min followed by addition of [gamma-33P]-ATP measured after 2 hrs by Radiometric Hotspot kinase assay

The term IC50 denotes the concentration at which inhibition is half-maximal. Higher therefore signals weaker potency in that assay.

Each structure is given as a SMILES string.

[Pyruvate dehydrogenase (acetyl-transferring)] kinase isozyme 4, mitochondrial, sequence (Q16654 whole entry): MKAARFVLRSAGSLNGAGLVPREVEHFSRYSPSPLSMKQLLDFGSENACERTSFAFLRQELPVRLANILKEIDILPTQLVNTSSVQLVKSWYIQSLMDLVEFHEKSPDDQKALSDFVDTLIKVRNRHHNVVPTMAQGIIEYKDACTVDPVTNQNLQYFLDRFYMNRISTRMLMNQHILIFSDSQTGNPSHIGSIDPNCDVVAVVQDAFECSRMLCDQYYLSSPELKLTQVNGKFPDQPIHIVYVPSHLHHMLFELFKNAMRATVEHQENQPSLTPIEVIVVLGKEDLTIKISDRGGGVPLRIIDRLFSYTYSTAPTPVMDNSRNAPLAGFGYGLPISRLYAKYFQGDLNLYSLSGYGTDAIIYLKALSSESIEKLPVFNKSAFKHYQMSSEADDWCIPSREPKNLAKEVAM
[Pyruvate dehydrogenase (acetyl-transferring)] kinase isozyme 3, mitochondrial, sequence (Q15120 whole entry): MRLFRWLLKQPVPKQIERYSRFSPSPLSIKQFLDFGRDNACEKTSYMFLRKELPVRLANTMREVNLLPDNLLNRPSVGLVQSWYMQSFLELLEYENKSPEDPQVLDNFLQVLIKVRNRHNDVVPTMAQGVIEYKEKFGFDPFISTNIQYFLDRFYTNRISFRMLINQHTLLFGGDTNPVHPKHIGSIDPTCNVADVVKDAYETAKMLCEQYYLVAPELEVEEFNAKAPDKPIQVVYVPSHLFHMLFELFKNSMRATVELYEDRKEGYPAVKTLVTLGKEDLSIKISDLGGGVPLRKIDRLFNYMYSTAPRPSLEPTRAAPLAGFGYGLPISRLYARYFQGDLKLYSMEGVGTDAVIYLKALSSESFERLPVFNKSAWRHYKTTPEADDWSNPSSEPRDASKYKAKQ

Consider `O=C(O)c1ccc(Br)c(NS(=O)(=O)c2ccc(Cl)s2)c1`, for which the IC50 in assay [1], in assay [2] and in assay [3] was greater than 30 µM throughout.

With `O=C(O)c1ccc(Br)c(NS(=O)(=O)c2cc(Cl)cc(Cl)c2)c1`, the IC50 in assay [1] is 17 µM; in assay [2], greater than 30 µM; in assay [3], greater than 30 µM.

In the case of `COc1cc(C(=O)O)cc(NS(=O)(=O)c2cc(Cl)ccc2C)c1Cl`, the IC50 in assay [1], in assay [2] and in assay [3] was greater than 30 µM in each case.

As for `Cc1ccc(Cl)cc1S(=O)(=O)Nc1cc(C#N)ccc1Br`, the IC50 in assay [1] was 15.5 µM; in assay [2], greater than 30 µM; in assay [3], greater than 30 µM.

Regarding `Cc1ccc(Cl)cc1S(=O)(=O)Nc1cc(Br)cc(C(=O)O)c1`, the half-maximal inhibitory concentration (IC50) in assay [1] was 23.6 µM; in assay [2], greater than 30 µM; in assay [3], greater than 30 µM.

Regarding `CSc1ccc(C(=O)O)cc1NS(=O)(=O)c1cc(Cl)ccc1C`, the IC50 in assay [1], in assay [2] and in assay [3] was greater than 30 µM throughout.

`Cc1ccc(Cl)cc1S(=O)(=O)Nc1cc(C(=O)O)ccc1Br`: the IC50 in assay [1] is 30 µM; in assay [2] it was greater than 30 µM; in assay [3], greater than 30 µM.

In the case of `O=C(O)C(Cl)Cl` [DICHLOROACETIC ACID], the IC50 in assay [1] was 108 µM; in assay [2], greater than 5000 µM; in assay [3], greater than 5000 µM.
